The values that follow come from PMC4728427, “Mechanism of allosteric activation of TMEM16A/ANO1 channels by a commonly used chloride channel blocker” (British Journal of Pharmacology, 2016).

The structures appear in SMILES notation.

The assay concerns the target T1, Mouse TMEM16A (Mus musculus, UniProt Q8BHY3).
T1 construct: expressed in transfected cells; host or cells: HEK-293T
T1 sequence (Q8BHY3 1-960): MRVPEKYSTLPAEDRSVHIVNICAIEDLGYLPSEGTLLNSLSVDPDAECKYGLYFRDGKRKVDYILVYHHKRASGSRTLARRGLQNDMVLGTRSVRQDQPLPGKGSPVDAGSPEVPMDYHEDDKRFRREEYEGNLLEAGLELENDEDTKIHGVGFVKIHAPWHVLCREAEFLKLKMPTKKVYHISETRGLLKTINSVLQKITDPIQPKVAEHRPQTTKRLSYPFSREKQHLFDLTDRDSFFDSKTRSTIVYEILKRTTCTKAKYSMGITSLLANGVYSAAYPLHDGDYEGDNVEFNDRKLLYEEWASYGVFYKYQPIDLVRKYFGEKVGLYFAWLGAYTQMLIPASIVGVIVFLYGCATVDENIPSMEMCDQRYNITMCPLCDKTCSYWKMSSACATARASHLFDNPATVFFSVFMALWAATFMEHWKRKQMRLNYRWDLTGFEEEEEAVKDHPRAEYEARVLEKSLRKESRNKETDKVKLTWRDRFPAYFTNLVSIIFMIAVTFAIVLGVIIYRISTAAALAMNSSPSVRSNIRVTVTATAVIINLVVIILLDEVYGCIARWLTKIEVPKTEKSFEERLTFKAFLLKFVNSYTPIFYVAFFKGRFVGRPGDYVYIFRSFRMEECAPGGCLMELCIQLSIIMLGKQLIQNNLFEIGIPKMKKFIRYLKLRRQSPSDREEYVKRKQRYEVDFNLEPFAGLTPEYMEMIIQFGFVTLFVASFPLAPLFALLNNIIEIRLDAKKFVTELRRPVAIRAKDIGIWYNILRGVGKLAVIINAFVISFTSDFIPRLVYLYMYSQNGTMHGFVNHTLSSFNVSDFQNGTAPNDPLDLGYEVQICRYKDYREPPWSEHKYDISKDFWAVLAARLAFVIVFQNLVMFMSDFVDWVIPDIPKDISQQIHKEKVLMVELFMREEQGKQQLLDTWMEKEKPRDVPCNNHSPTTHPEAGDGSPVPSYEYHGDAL
Description: Whole-cell TMEM16A current in the absence of [Ca2+]i. The format is cell-based. The settings on record: 3000 μM extracellular A9C. The procedure: Current versus V m relationships were constructed by measuring currents in response to 1 s V m steps (test pulses) from −100 to +100 mV in 40 mV increments (unless stated otherwise) after a 1 s V m step to +70 mV (pre‐pulse). Pulses were elicited every 2 s from a holding V m of 0 mV. Steady‐state currents were measured at the end of the test pulses. As detailed in the Results, in the presence of 300 nM [Ca^2+]i and extracellular A9C, the test‐pulse currents reached a peak within the first ~50 ms of the test pulse. These peak currents were also measured and plotted against the V m of the test pulse. Current density was obtained by dividing the current amplitude for the cell capacitance.
The gating of TMEM16A channels is modulated by changes in [Ca^2+]i and V m. To study the effect of A9C on the intrinsic V m‐dependence of the channel, extracellular A9C (3000 μM) was applied during whole‐cell patch‐clamp in the absence of [Ca^2+]i (Figure 9). The stimulation protocol was similar to that used in Figure 1. However, because TMEM16A current in the absence of [Ca^2+]i are evident at V m greater than ~100 mV (Xiao et al., 2011), test pulses were elicited up to a value of +140 mV. Consistent with previous studies (Xiao et al., 2011), TMEM16A current in the absence of [Ca^2+]i appeared almost instantaneously in response to strong depolarizations (Figure 9). […]

Regarding `O=C(O)c1c2ccccc2cc2ccccc12` [A9C, Anthracene‐9‐carboxylic acid], the “tail currents at negative Vm” value is “no large increase”. The same compound yielded a TMEM16A current density (+140 mV, control 13.0 ± 4.0) of 7.3 ± 3.8 pA∙pF^−1.
